Experimental data reported in ChEMBL document CHEMBL1201862, “PubChem BioAssay data set” (2004).
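Five compound concentrations were applied to cells in 96-well plates for 48 hours; endpoints were derived by simple linear interpolation of the resulting dose-response curve. GI50 is the concentration that inhibits growth by half.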 Active and inactive are the calls of the source. No stated cut-off is given here; in the data, active = GI50 up to about 1.1 µM and inactive = higher.

How the values were obtained:
Assay in all cases: DTP human tumour cell line panel, 48 h
[1] = tested on: DMS-114
[2] = tested on: DMS-273
[3] = tested on: HOP-18
[4] = tested on: KM-20L2
[5] = tested on: LXFL 529
[6] = tested on: M19-MEL
[7] = tested on: RXF 631
[8] = tested on: SNB-78
[9] = tested on: XF498

Measured: GI50

CCN(CC)CC(=O)N1CCc2c([nH]c3ccccc23)C1c1cccnc1 (centres undefined)
inactive: [1] > 100 µM | [2] > 100 µM | [3] > 100 µM | [4] > 100 µM | [5] > 100 µM | [6] > 100 µM | [7] > 100 µM | [8] > 100 µM | [9] > 100 µM
